# Assay results published in patent US20080319000A1, “Use of 3,1IB-Cis-Dihydrotetrabenazine for the Treatment of Symptoms of Huntingtons Disease” (CAMBRIDGE LABORATORIES (IRELAND) LIMITED, priority 2005, published 2008).
# Columns and labels:
# Male Sprague-Dawley rats = assay: Spontaneous locomotor activity in rats (sedative properties); type: in vivo; details: for Inactivity Duration / Large movements Duration / Large movements Occurrence: rats, 20 min period, mean ± SEM n=12
# Protocol: A study was carried out in rats to determine whether the dihydrotetrabenazine isomers of the invention have sedative properties. […] Male Sprague-Dawley rats, (Charles River Laboratories, Saint-Germain/L'Arbresle, France), weighing 200-250 g at the beginning of the study, were used for the studies. […] The rats were allowed to acclimatize to their conditions for at least five days before commencement of the study. The rats received food ([…], France, ref. 811002) and water (tap water in water bottle) ad libitum. Solutions of each test compound in corn oil were freshly prepared on the day of the experiment. Haloperidol was prepared in hydroxyethylcellulose, 0.5% in deionized water. Either the vehicle or the test compounds were administered as a single dose (0.3, 1, 3 and 10 mg/kg, 2 mL/kg i.p.). The reference compound haloperidol (1 mg/kg) was administered i.p. […] The animals were placed in plexiglass cages under a video camera in a room with low light intensity (maximum 50 lux). At forty five minutes and 3 hours after administration, locomotor activity was determined during 20 minute periods using a video image analyzer (Videotrack, View Point, France). […] The number and duration of ambulatory movements and duration of inactivity was measured. At the end of the locomotor activity measurement (45 minutes and 3 hours), palpebral closure and arousal were be scored as follows in the plexiglass cage: […] Image tracking was performed using a video camera placed above the plexiglass cage, recording overall locomotor activity. […] The results were expressed as the means ±SEMs of the 12 individual values. Statistical analyses were carried out using ANOVA (one way) and Dunnett's t-test and with the non parametric test of Kruskal-Wallis followed by a Mann & Whitney U-test for the sedation cotation. A p value of p<0.05 was taken as indicating significance. Group size n=12 Group 1: Reference, haloperidol (1 mg/kg i.p.) Group 2: Vehicle control group (2 ml/kg i.p.) Group 3: tetrabenazine (0.3 mg/kg i.p) Group 4: tetrabenazine (1 mg/kg i.p) Group 5: tetrabenazine (3 mg/kg i.p) Group 6: tetrabenazine (10 mg/kg i.p) Group 7: […]
# [1] = target: Dopamine Transporter (DAT) (Homo sapiens, UniProt Q01959); assay: Dopamine Transporter (DAT) binding
# Sequence of Dopamine Transporter (DAT) (Q01959 whole entry, species assumed, canonical isoform): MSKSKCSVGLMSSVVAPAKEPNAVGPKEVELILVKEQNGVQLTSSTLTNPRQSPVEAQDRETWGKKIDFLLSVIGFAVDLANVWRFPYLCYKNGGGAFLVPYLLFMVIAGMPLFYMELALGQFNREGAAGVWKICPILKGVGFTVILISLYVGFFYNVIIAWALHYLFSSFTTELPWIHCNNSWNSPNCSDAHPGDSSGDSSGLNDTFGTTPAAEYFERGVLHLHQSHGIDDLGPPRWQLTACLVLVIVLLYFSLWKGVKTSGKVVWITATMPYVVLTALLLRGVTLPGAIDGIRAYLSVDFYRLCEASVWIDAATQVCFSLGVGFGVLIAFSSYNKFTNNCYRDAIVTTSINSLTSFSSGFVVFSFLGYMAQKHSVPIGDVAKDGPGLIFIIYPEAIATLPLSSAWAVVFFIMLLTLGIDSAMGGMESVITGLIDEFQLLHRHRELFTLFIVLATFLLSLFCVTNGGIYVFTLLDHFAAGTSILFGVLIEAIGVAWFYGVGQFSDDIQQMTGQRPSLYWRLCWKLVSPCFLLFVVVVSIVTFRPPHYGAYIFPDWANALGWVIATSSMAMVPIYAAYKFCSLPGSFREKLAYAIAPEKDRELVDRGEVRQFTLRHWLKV
# [2] = target: 5-hydroxytryptamine isoform 1d (Homo sapiens, UniProt P28221); assay: 5-hydroxytryptamine 1d inhibition; type: binding
# Sequence of 5-hydroxytryptamine isoform 1d (P28221 whole entry, canonical isoform): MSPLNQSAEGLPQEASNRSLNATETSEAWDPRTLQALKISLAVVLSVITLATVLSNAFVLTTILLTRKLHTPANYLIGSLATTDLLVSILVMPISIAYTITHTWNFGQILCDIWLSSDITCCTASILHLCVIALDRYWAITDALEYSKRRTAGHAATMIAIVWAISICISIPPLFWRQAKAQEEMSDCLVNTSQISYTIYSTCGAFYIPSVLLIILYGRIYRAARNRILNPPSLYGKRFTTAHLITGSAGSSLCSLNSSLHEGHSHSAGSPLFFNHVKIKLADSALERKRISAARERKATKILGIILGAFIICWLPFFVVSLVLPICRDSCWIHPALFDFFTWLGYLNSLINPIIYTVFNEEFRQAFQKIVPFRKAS
# [3] = target: T1, monoamine oxidase isoform B (Homo sapiens, UniProt P27338); assay: Monoamine oxidase B inhibition; type: biochemical
# T1 sequence (P27338 1-520): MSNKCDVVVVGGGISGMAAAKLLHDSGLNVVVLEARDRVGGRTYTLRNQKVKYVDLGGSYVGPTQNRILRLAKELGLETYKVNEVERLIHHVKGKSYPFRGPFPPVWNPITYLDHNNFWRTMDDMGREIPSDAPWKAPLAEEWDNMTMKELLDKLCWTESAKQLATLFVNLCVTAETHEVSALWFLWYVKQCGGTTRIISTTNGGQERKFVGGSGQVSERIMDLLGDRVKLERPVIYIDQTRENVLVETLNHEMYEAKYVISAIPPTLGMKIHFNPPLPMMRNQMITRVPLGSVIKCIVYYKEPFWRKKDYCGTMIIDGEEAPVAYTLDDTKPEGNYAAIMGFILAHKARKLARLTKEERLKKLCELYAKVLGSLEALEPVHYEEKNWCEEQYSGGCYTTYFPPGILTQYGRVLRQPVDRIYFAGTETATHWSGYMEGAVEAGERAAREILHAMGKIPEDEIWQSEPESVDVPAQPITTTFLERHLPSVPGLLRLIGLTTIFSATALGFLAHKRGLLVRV
# [4] = test system: B6CBA-Tg(HDexon1)62Gpb/1J transgenic (R6/2) mice; assay: Locomotor activity test in transgenic mice model of Huntington's disease; type: in vivo; details: average recorded results, 5 mg/kg i.p.
# Protocol: B6CBA-Tg(HDexon1)62Gpb/1J transgenic (R6/2) mice are transgenic for the 5-end of the human HD gene carrying (CAG) 115-(CAG) 150 repeat expansions. […] These symptoms appear between 6 and 8 weeks of age. […] The mice had access to commercial mouse chow (mouse/rate breeding, ref. 9341 Provimi Kliba, Switzerland) and tap water. […] The mice were placed in a transparent plastic box of floor dimensions 30×30 cm in a room with low light intensity (maximum 20 lux). Locomotor activity was determined during a 10 minute period using a video image analyzer (Videotrack, View Point, Lyon, France). The number, distance and average speed of ambulatory movements were measured. The mice were returned to their home cages after testing. Group 1: hemizygote Transgenic B6CBA-Tg(HDexon 1)62Gpb/1J mice treated with vehicle i.p. once a day for 4 days (from day 0 to day 3) Group 2: hemizygote Transgenic B6CBA-Tg(HDexon 1)62Gpb/1J mice treated with 5 mg/kg i.p. of test item once a day for 4 days (from day 0 to day 3) […] • Test item administration • Simplified Irwin test, 40 min after administration • Locomotor activity test, immediately after the simplified Irwin test Simplified Irwin scores were analysed using non-parametric Mann-Whitney's U test. Locomotor activity data were analysed using Dunnett's t-test. Rotarod scores were analysed using the non-parametric Mann-Whitney's U-test. Statistical analyses were performed using the software Statview SE^+graphics software, Brain Power.
# [5] = target: 5-hydroxytryptamine isoform 1b (Homo sapiens, UniProt P28222); assay: 5-hydroxytryptamine 1b inhibition; type: binding
# Sequence of 5-hydroxytryptamine isoform 1b (P28222 whole entry, canonical isoform): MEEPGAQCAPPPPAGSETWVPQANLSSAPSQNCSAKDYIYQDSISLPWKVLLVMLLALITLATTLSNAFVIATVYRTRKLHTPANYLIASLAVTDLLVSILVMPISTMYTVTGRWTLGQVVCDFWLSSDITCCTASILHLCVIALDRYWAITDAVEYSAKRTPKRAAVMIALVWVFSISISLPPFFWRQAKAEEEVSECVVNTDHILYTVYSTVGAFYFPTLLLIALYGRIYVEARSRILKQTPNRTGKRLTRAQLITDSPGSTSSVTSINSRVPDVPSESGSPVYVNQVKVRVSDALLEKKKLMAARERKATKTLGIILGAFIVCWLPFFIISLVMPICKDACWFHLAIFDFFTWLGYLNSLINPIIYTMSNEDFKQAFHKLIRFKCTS
# dopamine receptor = assay: Dopamine receptor binding
# [6] = 0.3 mg/kg i.p., 45 minutes after administration
# [7] = 0.3 mg/kg i.p., 3 hours after administration
# [8] = 1 mg/kg i.p., 45 minutes after administration
# [9] = 1 mg/kg i.p., 3 hours after administration
# [10] = 3 mg/kg i.p., 45 minutes after administration
# [11] = 3 mg/kg i.p., 3 hours after administration
# [12] = 10 mg/kg i.p., 45 minutes after administration
# [13] = 10 mg/kg i.p., 3 hours after administration
# [14] = DAY 0, 40 mn after administration
# [15] = DAY 2, 40 mn after administration
compound,measurement,setting,value
"COc1cc2c(cc1OC)[C@H]1C[C@H](O)[C@@H](CC(C)C)CN1CC2 (single isomer, unassigned) [Isomer B]",sedative effect,Male Sprague-Dawley rats; locomotor studies carried out on rats,no sedative effects were observed
same,Inactivity Duration,Male Sprague-Dawley rats; [6],346.1 ± 36.9 s
same,Large movements Duration,Male Sprague-Dawley rats; [6],72.0 ± 9.6 s
same,Large movements Occurrence,Male Sprague-Dawley rats; [6],268 ± 36
same,Inactivity Duration,Male Sprague-Dawley rats; [7],566.4 ± 44.3 s
same,Large movements Duration,Male Sprague-Dawley rats; [7],28.9 ± 9.2 s
same,Large movements Occurrence,Male Sprague-Dawley rats; [7],101 ± 29
same,Inactivity Duration,Male Sprague-Dawley rats; [8],334.0 ± 23.2 s
same,Large movements Duration,Male Sprague-Dawley rats; [8],87.0 ± 7.6 s
same,Large movements Occurrence,Male Sprague-Dawley rats; [8],297 ± 22
same,Inactivity Duration,Male Sprague-Dawley rats; [9],525.8 ± 28.6 s
same,Large movements Duration,Male Sprague-Dawley rats; [9],34.5 ± 6.2 s
same,Large movements Occurrence,Male Sprague-Dawley rats; [9],125 ± 18
same,Inactivity Duration,Male Sprague-Dawley rats; [10],342.2 ± 33.3 s
same,Large movements Duration,Male Sprague-Dawley rats; [10],89.1 ± 12.4 s
same,Large movements Occurrence,Male Sprague-Dawley rats; [10],313 ± 38
same,Inactivity Duration,Male Sprague-Dawley rats; [11],530.5 ± 38.0 s
same,Large movements Duration,Male Sprague-Dawley rats; [11],31.1 ± 6.5 s
same,Large movements Occurrence,Male Sprague-Dawley rats; [11],113 ± 17
same,Inactivity Duration,Male Sprague-Dawley rats; [12],333.1 ± 26.9 s
same,Large movements Duration,Male Sprague-Dawley rats; [12],84.0 ± 11.2 s
same,Large movements Occurrence,Male Sprague-Dawley rats; [12],298 ± 37
same,Inactivity Duration,Male Sprague-Dawley rats; [13],515.0 ± 53.0 s
same,Large movements Duration,Male Sprague-Dawley rats; [13],30.9 ± 6.4 s
same,Large movements Occurrence,Male Sprague-Dawley rats; [13],120 ± 26
same,sedative effect,"Male Sprague-Dawley rats; rats, 0.3, 1, 3 and 10 mg/kg i.p., 45 minutes and 3 hours after administration",no sedative effects at any time
same,Dopamine Transporter (DAT) binding activity,[1],lack Dopamine Transporter (DAT) binding activity
same,inhibitory activity against 5-hydroxytryptamine isoform 1d,[2],no inhibitory activity
same,inhibitory activity against monoamine oxidase isoform B,[3],no inhibitory activity
same,Inactivity Duration,[4]; [14],184 ± 31 s
same,Large movements Duration,[4]; [14],99 ± 13 s
same,Large movements Occurence (number),[4]; [14],280 ± 41 number
same,Large movements Speed,[4]; [14],13.0 ± 0.5 cm/s
same,Inactivity Duration,"[4]; DAY 0, before administration",149 ± 27 s
same,Large movements Duration,"[4]; DAY 0, before administration",128 ± 16 s
same,Large movements Occurence (number),"[4]; DAY 0, before administration",309 ± 37 number
same,Large movements Speed,"[4]; DAY 0, before administration",13.2 ± 0.5 cm/s
same,Inactivity Duration,[4]; [15],134 ± 18 s
same,Large movements Duration,[4]; [15],123 ± 14 s
same,Large movements Occurence (number),[4]; [15],322 ± 40 number
same,Large movements Speed,[4]; [15],13.9 ± 0.7 cm/s
same,Inactivity Duration,[4]; DAY 24,67 ± 42 s
same,Large movements Duration,[4]; DAY 24,148 ± 34 s
same,Large movements Occurence (number),[4]; DAY 24,818 ± 168 number
same,Large movements Speed,[4]; DAY 24,11.2 ± 0.9 cm/s
same,inhibitory activity against 5-hydroxytryptamine isoform 1b,[5],no inhibitory activity
same,dopamine receptor binding activity,dopamine receptor,only weak or non-existent
